Among the data in the Bradley open melting point set (2014) are melting point values, retold here.

Several values for one entry are separate records, joined by “and”; a condition that tells them apart may be missing. Equal values may be shown once.

Broadly, the melting point is the temperature, or range, at which the solid turns liquid. Take `Cc1cccc(C)c1C` [1,2,3-trimethylbenzene]: the melting point is -25 °C. `On1nnc2ccccc21` [1H-Benzotriazol-1-ol] yielded a melting point of 159 °C.

The compound `CC(=O)Nc1ccc(OC(=O)c2ccccc2O)cc1` [acetaminosalol] gave a melting point of 187 °C.

In the case of `COC(=O)c1ccc(C(=O)OC)cc1` [dimethyl terephthalate], the melting point was 142 °C. As for `CN(C)c1ccc(C=O)c(Cl)c1` [2-chloro-4-dimethylaminobenzaldehyde], the melting point was 80 °C. To `O=S(=O)(O)CCCNC(CO)(CO)CO` belongs 230 °C; to `OC[C@@H](O)COCc1ccccc1` [(2R)-3-(Benzyloxy)propane-1,2-diol], 27.5 °C; to `O=C(O)Cc1ccc(O)c(F)c1` [3-fluoro-4-hydroxyphenylacetic acid], 132 °C. `CC(=O)Nc1nccs1` [2-acetamidothiazole] yielded a melting point of 203 °C. For the compound `Brc1n[nH]c(Br)c1Br` [3,4,5-tribromo-1h-pyrazole], the melting point worked out at 186 °C. Take `Oc1ccccc1` [phenol]: the melting point came out at 41 °C. The result for `O=Cc1c(Cl)cccc1Cl` [2,6-dichlorobenzaldehyde] reads 71 °C and 71.5 °C.

On to `Cc1ccccc1N1CCNCC1` [1-(o-tolyl)piperazine], for which the melting point turned out to be 47 °C. The result for `Nc1cc([N+](=O)[O-])ccc1Cl` [2-chloro-5-nitroaniline] reads 119 °C; that for `O=C1CN(/N=C/c2ccc([N+](=O)[O-])o2)C(=O)N1` [nitrofurantoin], 263 °C. The result for `COC(=O)c1c(Cl)c(Cl)c(C(=O)OC)c(Cl)c1Cl` [dimethyl tetrachloroterephthalate] reads 157 °C; that for `CC(Br)CBr` (centres undefined) [1,2-dibromopropane], -55 °C. To `ClC1=C(Cl)C2(Cl)C3C(Cl)C(Cl)CC3C1(Cl)C2(Cl)Cl` (stereo not drawn) [trans-gamma-chlordane] belongs 106 °C; to `Cl[C@H]1[C@H](Cl)[C@@H](Cl)[C@@H](Cl)[C@H](Cl)[C@H]1Cl` [lindane], 113 °C and 112 °C. Turning to `COc1ccc(CC(=O)O)cc1OC` [(3,4-Dimethoxyphenyl)acetic acid], the melting point was 98 °C. To `C=C1CCC2CC1C2(C)C` (centres undefined) [b-pinene] belongs -61 °C; to `CCCCCCCCCCCCCCCCCCS` [1-octadecanethiol], 32 °C. `Cc1c(C)c(C#N)c2ccccc2c1C#N` [2,3-dimethylnaphthalene-1,4-dicarbonitrile] registered a melting point of 263 °C. The result for `CC(C)c1ccc(B(O)O)cc1` [4-isopropylbenzeneboronic acid] reads 143 °C. To `COC(=O)C(O)c1ccccc1[N+](=O)[O-]` (centres undefined) [methyl hydroxy(2-nitrophenyl)acetate] belongs 62 °C. To `O=C(c1ccccc1)C(O)c1ccccc1` (centres undefined) [benzoin] belongs 135 °C; to `CC1=NS(=O)(=O)c2cc(Cl)ccc2N1` [Diazoxide], 330 °C; to `COc1ccc(OC)c(C)c1` [2,5-dimethoxytoluene], 20 °C. Consider `O=C(O)Cc1cccc([N+](=O)[O-])c1` [m-nitro_phenylacetic_acid], for which the melting point was determined as 119 °C. To `CCOC(=O)/C(C#N)=C\c1ccc(-c2ccccc2)o1` [Ethyl (2Z)-2-cyano-3-(5-phenyl-2-furyl)acrylate] belongs 117 °C. To `CN(C)CC(=O)N1c2ccccc2Sc2ccccc21` [ahistan] belongs 144 °C. On to `O=[N+]([O-])c1ccc(Nc2ccccc2)c([N+](=O)[O-])c1` [2,4-Dinitro-N-phenylaniline], for which the melting point was determined as 160 °C. Turning to `CC(=O)c1cccc([N+](=O)[O-])c1` [1-(3-Nitrophenyl)ethanone], the melting point amounted to 81 °C. With `O=C(/C=C/c1ccc2ccccc2c1)/C=C/c1ccc2ccccc2c1` [(1E,4E)-1,5-Di(2-naphthyl)-1,4-pentadien-3-one], the melting point is 244 °C and 245 °C. The result for `Cc1c(C)c(C)c(C)c(C)c1C` [hexamethylbenzene] reads 164 °C; that for `O=C(CO)[C@H](O)[C@@H](O)[C@H](O)CO` [D-Sorbose], 95 °C; that for `NC(=O)c1cc(Cl)cc(Cl)c1` [3,5-dichlorobenzamide], 160 °C. `O=C1OC(=O)c2c(Cl)c(Cl)c(Cl)c(Cl)c21` [4,5,6,7-Tetrachloro-2-benzofuran-1,3-dione] returned a melting point of 256 °C.

In the case of `O=C(O)c1ccc(OCc2ccccc2)cc1F` [4-benzyloxy-2-fluorobenzoic acid], the melting point stood at 167 °C. Regarding `O=C(O)c1ccc2ccccc2c1` [2-naphthoic acid], the melting point came to 184 °C. For `NC(=O)c1cnccn1` [pyrazinamide], the melting point is 190 °C and 189 °C. The result for `c1ccc(-c2nc3ccccc3[nH]2)cc1` [2-phenylbenzimidazole] reads 297 °C. For `CCCOC(=O)c1ccc(O)cc1` [propylparaben], the melting point came to 96.5 °C.

Turning to `COc1cc(N)ccc1C` [3-methoxy-4-methylaniline], the melting point stood at 58 °C. The result for `CN(C)c1ccc(Br)cc1` [4-bromo-n,n-dimethylaniline] reads 55 °C; that for `CC(C)(C)OC(=O)N[C@H](Cc1ccccc1)C(=O)O` [N-boc-D-phenylalanine], 87 °C; that for `COc1ccc(OC)cc1` [p-dimethoxybenzene], 60 °C. `C1=NN=C2CSCC12` (centres undefined) [4,6-dihydro-1H-thieno[3,4-c]pyrazole]: the melting point is 133 °C. `Cc1cc(/C=C2\SC(=Nc3ccccc3)N=C2O)c(C)n1-c1ccc(F)cc1` [OSM-S-10] showed a melting point of 278 °C.

In the case of `CSCC[C@H](NC(C)=O)C(=O)O` [N-Acetyl-L-methionine], the melting point came to 106 °C. To `COc1cccc(/C=C/[N+](=O)[O-])c1OC` [2,3-dimethoxy-beta-nitrostyrene] belongs 81 °C; to `CCCCCCCCCN` [1-nonylamine], -1 °C; to `CCCCCCC` [heptane], -91 °C and -90.6 °C. To `COc1ccc(C)cc1` [4-methylanisole] belongs -50 °C. The result for `Nc1nc2ccc([N+](=O)[O-])cc2s1` [2-amino-6-nitrobenzothiazole] reads 248 °C; that for `CCCCCCCCCCCCCc1ccccc1` [N-tridecylbenzene], 10 °C; that for `O=C=NC1CCCCC1` [cyclohexyl isocyanate], -80 °C. Compound `COc1cccc(C)c1C` [2,3-dimethylanisole] had a melting point of 29 °C. The compound `c1ccc2c(c1)Cc1ccccc1C2` [9,10-Dihydroanthracene] displayed a melting point of 109 °C.

Regarding `CCOC(=O)C(C=Cc1cccc(C=CC(C(=O)OCC)C(=O)OCC)c1)C(=O)OCC`, the melting point is 101 °C. The result for `CCc1ccc(Br)cc1` [1-bromo-4-ethylbenzene] reads -43 °C; that for `CN(C)CCO` [2-(Dimethylamino)ethanol], -70 °C. In the case of `Cc1ccc(C)c(B(O)O)c1` [2,5-dimethylbenzeneboronic acid], the melting point was 180 °C. `CC12CCC(/C(=C/N(Cl)c3ccccc3)C1=O)C2(C)C` (centres undefined) yielded a melting point of 103 °C.
